Source: patent publication US20210163357A1, “Composition comprising at least one microorganism and use thereof” (Evonik Operations GmbH, priority 2018, published 2021)

Assays:
Assay type in all cases: cell-based
[1] = system: Bacillus subtilis (DSM 10); assay: Compatibility of microorganisms with hydrophobizing agent and shrinkage reducer, liquid culture, turbidity; conditions: WS405 5, 20 or 30 g/L; neopentyl glycol 0.7, 7 or 14 g/L; 4 days, 30° C.
Procedure: (§1) The strains Bacillus subtilis (DSM 10) and Bacillus pseudofirmus (DSM 8715) were investigated for compatibility with hydrophobizing agents and shrinkage reducers.
(§2) A mixture of 3 g of meat extract, 5 g of peptone from casein and 1000 mL of distilled water adjusted to pH 7 using HCl/NaOH for Bacillus subtilis (DSM 10) and adjusted to pH 7 using Na sesquicarbonate for Bacillus pseudofirmus (DSM 8715) was used as the medium.
(§3) A pre-culture was initially produced for each of the two strains: To this end, an inoculation dose of the spores was in each case placed into a culture tube with 8 mL of the respective medium and left overnight in a laboratory shaker at 30° C. and 200 revolutions per minute. Furthermore, aqueous stock solutions respectively having a concentration of Protectosil® WS405 (hydrophobizing agent) of 500 g/L and a concentration of neopentyl glycol (shrinkage reducer) of 280 g/L were produced.
(§4) For the main cultures two 6-well spot plates were each filled with 8 mL of medium. Then, 10 μL of the first pre-culture were added to each well of the first plate and 10 μL of the second pre-culture were added to each well of the second plate. […]

[2] = system: Bacillus pseudofirmus (DSM 8715); assay: as above; conditions: WS405 5, 20 or 30 g/L; neopentyl glycol 0.7, 7 or 14 g/L; 4 days, 30° C.
Procedure: as §1, §2, §3, §4

[3] = system: Bacillus subtilis DSM 32315; assay: Compatibility of spores with additives on agar plates; conditions: neopentyl glycol 7 g/L, Protectosil WS405 20 g/L
Procedure: For spores of the strain Bacillus subtilis DSM 32315 compatibility with neopentyl glycol (7 g/L) and Protectosil® WS405 (20 g/L) was investigated on agar plates. A mixture of 3 g of meat extract, 5 g of peptone from casein and 1000 mL of distilled water adjusted to pH 7 using HCl/NaOH was used as medium.

Structure (SMILES): CC(C)(CO)CO [neopentyl glycol]
- growth of microorganism in presence of additive (turbidity) [1]: growth of neither organism was impaired
- growth of microorganism in presence of additive (turbidity) [2]: growth of neither organism was impaired
- formation of colonies in presence of additive [3]: Formation of colonies was observed in all cases
